Source: ChEMBL document CHEMBL3992516, “Synthesis and SAR evaluation of novel thioridazine derivatives active against drug-resistant tuberculosis” (Eur J Med Chem, 2017)
Converted amounts (≈) assume the structure as drawn.

Tests used:
[1] = system: Mycobacterium tuberculosis; assay: Antimycobacterial activity against multidrug-resistant Mycobacterium tuberculosis CF104 clinical isolate incubated for 7 days measured 24 hrs post incubation by resazurin microtiter assay; type: functional
[2] = system: Mycobacterium tuberculosis; assay: Antimycobacterial activity against multidrug-resistant Mycobacterium tuberculosis CF81 clinical isolate incubated for 7 days measured 24 hrs post incubation by resazurin microtiter assay; type: functional

| SMILES | MIC90 [1] [µg/mL] | MIC90 [2] [µg/mL] |
| --- | --- | --- |
| CN1CCCCC1CCN1c2ccccc2Sc2ccc(Cl)cc21 (configuration not stated) | 16 (≈ 44.6 µM) | 12 (≈ 33.4 µM) |
| CN1CCCCC1CCn1c2ccccc2c2ccccc21 (configuration not stated) | 48 (≈ 164 µM) | 46 (≈ 157 µM) |
| c1ccc2c(c1)ccn2CCC1CCCCN1 (configuration not stated) | 10 (≈ 43.8 µM) | 4 (≈ 17.5 µM) |
| CSc1ccc2c(c1)N(CCCN1CCN(C)CC1)c1ccccc1S2 | 23 (≈ 59.6 µM) | 33 (≈ 85.6 µM) |
| CN1CCCCC1CCN1c2ccccc2Sc2ccccc21 (configuration not stated) | > 64 | 58 (≈ 179 µM) |
| c1ccc2c(c1)Sc1ccccc1N2CCC1CCCCN1 (configuration not stated) | > 64 | 58 (≈ 187 µM) |
| c1ccc2c(c1)ncn2CCC1CCCCN1 (configuration not stated) | > 100 | > 100 |
| CSc1ccc2c(c1)N(CCC1CCCCN1)c1ccccc1S2 (configuration not stated) | > 100 | > 100 |
| Clc1ccc2c(c1)N(CCC1CCCCN1)c1ccccc1S2 (configuration not stated) | 19 (≈ 55.1 µM) | 11 (≈ 31.9 µM) |
| CSc1ccc2c(c1)N(CCCN1CCN(C3C4CC5CC(C4)CC3C5)CC1)c1ccccc1S2 (configuration not stated) | 20 (≈ 39.5 µM) | 48 (≈ 94.9 µM) |
| CSc1ccc2c(c1)N(C(=O)CN1CCCCC1)c1ccccc1S2 | 72 (≈ 194 µM) | > 100 |
| CSc1ccc2c(c1)N(CCC1CCCCN1Cc1ccccc1)c1ccccc1S2 (configuration not stated) | 32 (≈ 71.6 µM) | 44 (≈ 98.5 µM) |
| NNC(=O)c1ccncc1 [ISONIAZID] | > 25 | > 25 |
| CN1CCN(CCCN2c3ccccc3Sc3ccccc32)CC1 [PERAZINE] | > 100 | > 100 |
| CO[C@H]1/C=C/O[C@@]2(C)Oc3c(C)c(O)c4c(O)c(c(/C=N/N5CCN(C)CC5)c(O)c4c3C2=O)NC(=O)/C(C)=C\C=C\[C@H](C)[C@H](O)[C@@H](C)[C@@H](O)[C@@H](C)[C@H](OC(C)=O)[C@@H]1C [RIFAMPIN] | > 25 | > 25 |
| CSc1ccc2c(c1)N(CCC1CCCCN1C)c1ccccc1S2 (configuration not stated) [THIORIDAZINE] | 11 (≈ 29.7 µM) | 10 (≈ 27 µM) |
